From patent US20230151025A1, “SUBSTITUTED THIAZOLOPYRIDINES, SALTS THEREOF AND THEIR USE AS HERBICIDALLY ACTIVE SUBSTANCES” (Bayer Aktiengesellschaft, priority 2020, published 2023)

Legend:
Type in all cases: in vivo
[1] = test system: Abutilon theophrasti (ABUTH); assay: Herbicidal pre-emergence action (A), 1280 g/ha; settings: visual grading after ca. 3 weeks vs untreated controls, 100% = plants have died off, 0% = as control plants
Summary of the method: (§1)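 Pre-emergence greenhouse test: seeds sown in sandy loam pots, WP or EC formulations sprayed onto covering soil as aqueous suspension/emulsion with 0.5% additive at 600 l water/ha. Damage graded visually after ca. 3 weeks versus untreated controls, 0% = as control, 100% = plants dead.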

[2] = test system: Alopecurus myosuroides (ALOMY); assay: Herbicidal pre-emergence action (A), 1280 g/ha; settings: visual grading after ca. 3 weeks vs untreated controls, 100% = plants have died off, 0% = as control plants
Summary of the method: as §1

[3] = test system: Amaranthus retroflexus (AMARE); assay: Herbicidal pre-emergence action (A), 1280 g/ha; settings: visual grading after ca. 3 weeks vs untreated controls
Summary of the method: as §1

[4] = test system: Digitaria sanguinalis (DIGSA); assay: Herbicidal pre-emergence action (A), 1280 g/ha; settings: visual grading after ca. 3 weeks vs untreated controls, 100% = plants have died off, 0% = as control plants
Summary of the method: as §1

[5] = test system: Echinochloa crus-galli (ECHCG); assay: Herbicidal pre-emergence action (A), 1280 g/ha; settings: visual grading after ca. 3 weeks vs untreated controls, 100% = plants have died off, 0% = as control plants
Summary of the method: as §1

[6] = test system: Kochia scoparia (KCHSC; Bassia scoparia); assay: Herbicidal pre-emergence action (A), 1280 g/ha; settings: visual grading after ca. 3 weeks vs untreated controls
Summary of the method: as §1

Lolium rigidum (LOLRI) [7] = assay: Herbicidal pre-emergence action (A), 1280 g/ha; settings: visual grading after ca. 3 weeks vs untreated controls, 100% = plants have died off, 0% = as control plants
Summary of the method: as §1

[8] = test system: Matricaria inodora (MATIN); assay: Herbicidal pre-emergence action (A), 1280 g/ha; settings: visual grading after ca. 3 weeks vs untreated controls
Summary of the method: as §1

Poa annua (POAAN) = assay: Herbicidal pre-emergence action (A), 1280 g/ha; settings: visual grading after ca. 3 weeks vs untreated controls, 100% = plants have died off, 0% = as control plants
Summary of the method: as §1

Setaria viridis (SETVI) [9] = assay: Herbicidal pre-emergence action (A), 1280 g/ha; settings: visual grading after ca. 3 weeks vs untreated controls
Summary of the method: as §1

Stellaria media (STEME) = assay: Herbicidal pre-emergence action (A), 1280 g/ha; settings: visual grading after ca. 3 weeks vs untreated controls
Summary of the method: as §1

Veronica persica (VERPE) [10] = assay: Herbicidal pre-emergence action (A), 1280 g/ha; settings: visual grading after ca. 3 weeks vs untreated controls
Summary of the method: as §1

[11] = test system: Alopecurus myosuroides (ALOMY); assay: Herbicidal pre-emergence action (C), 320 g/ha; settings: ca. 3 weeks
Summary of the method: (§2)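 Seeds sown in sandy loam and covered with soil; compounds formulated as WP or EC were sprayed onto the covering soil as aqueous suspension/emulsion with 0.5% additive at 600 l water/ha. Pots kept in greenhouse; damage graded visually after ca. 3 weeks versus untreated controls (0% = as control, 100% = plants dead).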

[12] = test system: Amaranthus retroflexus (AMARE); assay: Herbicidal pre-emergence action (C), 320 g/ha; settings: ca. 3 weeks
Summary of the method: as §2

[13] = test system: Echinochloa crus-galli (ECHCG); assay: Herbicidal pre-emergence action (C), 320 g/ha; settings: ca. 3 weeks
Summary of the method: as §2

Lolium rigidum (LOLRI) [14] = assay: Herbicidal pre-emergence action (C), 320 g/ha; settings: ca. 3 weeks
Summary of the method: as §2

Setaria viridis (SETVI) [15] = assay: Herbicidal pre-emergence action (C), 320 g/ha; settings: ca. 3 weeks
Summary of the method: as §2

Veronica persica (VERPE) [16] = assay: Herbicidal pre-emergence action (C), 320 g/ha; settings: ca. 3 weeks
Summary of the method: as §2

[17] = test system: Amaranthus retroflexus (AMARE); assay: Herbicidal post-emergence action (D), 320 g/ha; settings: ca. 3 weeks
Summary of the method: (§3)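 Post-emergence greenhouse spray of WP or EC formulations plus 0.5% additive at 600 l water/ha onto single-leaf-stage plants, 2–3 weeks after sowing in sandy loam. About 3 weeks later, effect was rated visually against untreated controls as % herbicidal effect, where 0% means like control and 100% means plants dead.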

[18] = test system: Polygonum convolvulus (POLCO); assay: Herbicidal post-emergence action (D), 320 g/ha; settings: ca. 3 weeks
Summary of the method: as §3

Veronica persica (VERPE) [19] = assay: Herbicidal post-emergence action (D), 320 g/ha; settings: ca. 3 weeks
Summary of the method: as §3

[20] = test system: Digitaria sanguinalis (DIGSA); assay: Herbicidal pre-emergence action (C), 320 g/ha; settings: ca. 3 weeks
Summary of the method: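 Weed and crop seeds sown in sandy loam; WP or EC formulations applied pre-emergence to the soil surface as aqueous suspension/emulsion with 0.5% additive at 600 l water/ha. Greenhouse-grown under optimum conditions; damage visually scored after ca. 3 weeks versus untreated controls (0% = as control, 100% = plants dead).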

[21] = test system: Alopecurus myosuroides (ALOMY); assay: Herbicidal post-emergence action (D), 320 g/ha; settings: ca. 3 weeks
Summary of the method: as §3

[22] = test system: Echinochloa crus-galli (ECHCG); assay: Herbicidal post-emergence action (D), 320 g/ha; settings: ca. 3 weeks
Summary of the method: as §3

Compound	ALOMY, herbicidal effect in percent (%) [2] [%]	herbicidal effect AMARE [3] [%]	ECHCG, herbicidal effect in percent (%) [5] [%]	herbicidal effect KCHSC [6] [%]	LOLRI, herbicidal effect in percent (%) (Lolium rigidum (LOLRI) [7])	herbicidal effect MATIN [8] [%]	POAAN, herbicidal effect in percent (%) (Poa annua (POAAN))	herbicidal effect SETVI (Setaria viridis (SETVI) [9]) [%]	herbicidal effect STEME (Stellaria media (STEME)) [%]	herbicidal effect VERPE (Veronica persica (VERPE) [10]) [%]	herbicidal effect ALOMY [11] [%]	herbicidal effect AMARE [12] [%]	herbicidal effect ECHCG [13] [%]	herbicidal effect LOLRI (Lolium rigidum (LOLRI) [14]) [%]	herbicidal effect SETVI (Setaria viridis (SETVI) [15]) [%]	herbicidal effect VERPE (Veronica persica (VERPE) [16]) [%]	herbicidal effect AMARE [17] [%]	herbicidal effect VERPE (Veronica persica (VERPE) [19]) [%]	herbicidal effect ALOMY [21] [%]	herbicidal effect ECHCG [22] [%]	other results
Fc1ccccc1-c1nc2ncsc2cc1C1CC1 [Example I-102]	100	90	100	100	100	100	100	100	90	100	90	90	100	100	100	80	80	80	–	–	ABUTH, herbicidal effect in percent (%) [1]: 90%; DIGSA, herbicidal effect in percent (%) [4]: 100%; herbicidal effect POLCO [18]: 80%
COc1ccccc1-c1nc2ncsc2cc1C [Example I-124]	100	100	100	100	100	100	100	100	100	100	100	90	100	100	100	90	–	90	90	80	ABUTH, herbicidal effect in percent (%) [1]: 100%; DIGSA, herbicidal effect in percent (%) [4]: 100%; herbicidal effect DIGSA [20]: 100%
Cc1cc2scnc2nc1-c1sccc1C [Example I-143]	100	90	100	90	100	90	100	100	90	100	100	90	100	100	100	90	80	80	90	80	ABUTH, herbicidal effect in percent (%) [1]: 90%
Fc1ccccc1-c1nc2ncsc2cc1I [Example I-188]	100	–	100	90	100	90	100	100	90	90	100	90	100	100	100	90	90	90	90	100	herbicidal effect POLCO [18]: 80%
Cc1cc2scnc2nc1-c1ccsc1C [Example I-194]	100	100	100	100	100	100	100	100	100	100	100	90	100	100	100	80	80	–	90	90	–
